Measurements: patent US20250134862A1, “PROCESS FOR TREATING LIVESTOCK EXPOSED TO TOXIC FORAGE USING MELATONIN COMPOSITIONS” (BOARD OF TRUSTEES OF THE UNIVERSITY OF ARKANSAS, priority 2022, published 2025)

Columns and labels:
[1] = test system: offspring of dams that consumed endophyte-infected (E+) tall fescue seed; test: Example 1: body composition (carcass) ultrasonography of calves at weaning; format: in vivo, cattle
Source text: (§1) After the training period, the heifers started a 70-day feeding trial (FIG. 2) to evaluate the influence of toxic fescue and melatonin on the developing fetus. To mimic the natural peak of ergot alkaloids in Kentucky 31 fescue, toxic fescue seed was fed with or without melatonin during the 70-day period between May and July. The feed trial period diet consisted of an ad libitum Bermuda grass hay and one of four (4) feed rations. The trial utilized a 2×2 factorial treatment arrangement (E− without melatonin, E−/NM; E− with melatonin, E−/M; E+ without melatonin, E+/NM; or E+ with melatonin, E+/M; melatonin dose: 100 μg/kg of BW) for a 70-d period between May and July starting at 160±13 days of gestation to mimic ergot alkaloid concentrations (ergot alkaloid dose: 13 μg/kg of BW) in a grazing scenario (FIG. 2). Each of the four feed ration treatments was represented in each of the two pens/groups of cattle (FIG. 1). All diets contained corn gluten and molasses and were fed using SmartFeed Pro (C-Lock Inc.) controlled feeding units between 0900 and 1400 h daily. Cattle were removed from dietary treatments 39±19 days before calving. Two replicates were housed separately in the open-air barn (FIG. 1), each with a 1.2-ha paddock. Before and following the 70-d treatment period, all cattle were maintained as a single group free from toxic fescue.
(§2) Powdered melatonin (Cayman Chemical Company) was mixed into 100% ethanol and mixed with feed (fescue seed, corn gluten, and molasses) in a concrete mixer until the feed was dry (ethanol evaporates, and melatonin remains). Melatonin was dosed at about 100 μg/kg of body weight or about 50 mg/head/day for all groups. Ad libitum Bermuda grass hay was offered in an adjacent pasture area to encourage animals to leave the barn after consuming the feed ration during both the training and the feed trial period. After completion of the feed trial, heifers were maintained on fescue-free pastures at the Physiology Farm and supplemented as needed through calving and until their calves were weaned.
Calves were weaned at 226±19 d of age. Gestation length, calf birth weight, 205-day adjusted weaning weight (205-d WW), carcass ultrasonography measures (ribeye area, REA: REA/CWT), percent intramuscular fat (IMF), rib fat thickness (UFAT), rump fat thickness (URUMP), post-weaning weights (recorded every 28 days between weaning and 84 days post-weaning), and post-weaning average daily gain (ADG) (between weaning and 84 days post-weaning) were evaluated in offspring (n=44) (FIGS. 6-13). Post-weaning calf weights were analyzed using the MIXED procedure of SAS specific for repeated measures with treatment and time as fixed effects and replicate as random. All other variables were analyzed using the MIXED procedure of SAS with treatment as a fixed effect and replicate as random with gestation length as a covariate for birth weight. Table 1 summarizes the gestation length and body weights of calves born to primiparous dams that consumed E- or E+ fescue seed with (M) or without melatonin (NM) supplementation during mid-late gestation. Data in Tables 1 and 2 are presented as LS MEANS±SEM.

[2] = test system: beef cows that grazed toxic, endophyte-infected tall fescue (E+) during gestation; test: Example 3: estimated daily milk volume and weight from four-hour milk yields; format: in vivo, cattle; details: d 56, P<0.03
Source text: The same artificially inseminated cows were used in Example 3 that were used Example 2. As outlined above in Example 2, forty-nine (n=49) multiparous crossbred beef cows were artificially inseminated with sex-sorted semen (Y chromosome-bearing sperm) from a single Angus sire and maintained on pastures free from E+ fescue prior to the start of the treatment period. Pregnant cows were stratified into three treatment groups based on body weight, with two replications per treatment: non-toxic, novel endophyte-infected (NE+) tall fescue without melatonin supplementation (NE+/NM; n=15), E+ fescue with melatonin supplementation (E+/M; n=16), and E+ fescue without melatonin supplementation (E+/NM; n=18). The treatment period was over 70 d between May and July (d 147±1 to 217-1 of gestation). […]
After birth, calves were castrated within 48-72 hours. […] Protein, lactose, and triglycerides were evaluated in milk samples collected on d 28 and d 56.
(§3) Dam body weight (FIG. 32) and calf body weight (FIG. 34) were analyzed, using the MIXED procedure of SAS specific for repeated measures with treatment and time as fixed effects and replicate as a random effect. Dam prolactin, calf birth weight (FIG. 33), milk volume (FIGS. 35 and 37), and milk weight (FIGS. 36 and 38) were analyzed using the MIXED procedure of SAS with treatment as a fixed effect and replicate as a random effect.

[3] = test system: steer calves of pregnant beef cattle grazing toxic, endophyte-infected tall fescue (E+); test: Example 3: body weight of steer calves born to dams grazing E+ fescue with melatonin supplementation; format: in vivo; details: for Calf weight: raw group average
Source text: The same artificially inseminated cows were used in Example 3 that were used Example 2. As outlined above in Example 2, forty-nine (n=49) multiparous crossbred beef cows were artificially inseminated with sex-sorted semen (Y chromosome-bearing sperm) from a single Angus sire and maintained on pastures free from E+ fescue prior to the start of the treatment period. Pregnant cows were stratified into three treatment groups based on body weight, with two replications per treatment: non-toxic, novel endophyte-infected (NE+) tall fescue without melatonin supplementation (NE+/NM; n=15), E+ fescue with melatonin supplementation (E+/M; n=16), and E+ fescue without melatonin supplementation (E+/NM; n=18). The treatment period was over 70 d between May and July (d 147±1 to 217-1 of gestation). A commercially available feed was mixed with melatonin (100 μg/kg BW) or without melatonin and hand-fed to each cow daily. At the conclusion of the treatment period (56±18 d before parturition), cattle were moved to a single group and maintained on pastures free from E+ fescue, where they remained through weaning.
After birth, calves were castrated within 48-72 hours. Dams and steer calves were weighed every 28 days relative to calving (FIG. 31): i.e., at d 0, 28, 56, 84, 112, 140, and 168 (d 0=calving, <24 h). Table 3 depicts calf weight at preweaning, postweaning, and feedlot for NE+/NM, E/+M, and E/+NM (respectively, green, yellow, and red in FIG. 34B). Four-hour milk yields on d 28±3 and d 56±3 were used to estimate daily milk volume and weight. Protein, lactose, and triglycerides were evaluated in milk samples collected on d 28 and d 56.
as §3

[4] = test system: pregnant beef cattle grazing toxic, endophyte-infected (E+) tall fescue; test: Example 2: plasma prolactin by radioimmunoassay on d 70 of the treatment period; format: in vivo; details: cows on E+ fescue with melatonin 100 μg/kg BW, d 70 of treatment
Source text: (§4) Multiparous crossbred cows were artificially inseminated with sex-sorted semen (Y chromosome-bearing sperm) from a single Angus sire and maintained on pastures free from E+ fescue prior to the start of the treatment period. Pregnant cows […] were assigned to one of three treatment groups based on body weight, with two replications per treatment: non-toxic, novel endophyte-infected (NE+) fescue without melatonin supplementation (NE+/NM; […]), E+ fescue with melatonin supplementation (E+/M; n=16), and E+ fescue without melatonin supplementation (E+/NM; n=18). Treatments were administered over a 70-d period between May and July (d 147±1 to 217±1 of gestation). A commercially available feed was mixed with or without melatonin [100 μg/kg body weight (BW)] and hand-fed daily.
Cows were weighed every fourteen (14) days relative to the start of the 70-d treatment period (FIG. 16-17): i.e., at d 0, 14, 28, 42, 56, and 70. […]
After the treatment period, cattle were maintained together as a single group on pastures that were free from E+ fescue. Body weights were analyzed using the MIXED procedure of SAS specific for repeated measures with treatment, time, and the interaction as fixed effects and replicate as random. Arterial hemodynamics and prolactin measures were analyzed using the MIXED procedure of SAS with treatment as a fixed effect and replicate as a random effect. […]

[5] = test system: pregnant beef cattle grazing toxic, endophyte-infected (E+) tall fescue; test: Example 2: color Doppler ultrasound of uterine and coccygeal artery hemodynamics; format: in vivo
Source text: as §4
Cows were weighed every fourteen (14) days relative to the start of the 70-d treatment period (FIG. 16-17): i.e., at d 0, 14, 28, 42, 56, and 70. Measurements of plasma prolactin were obtained on d 70 of the treatment period by radioimmunoassay (FIG. 18). Color Doppler ultrasound of the uterine and coccygeal artery was conducted at d 68±1 of the treatment period. Cardiac cycle waveforms from three independent ultrasound scans were used to determine the following uterine artery measures (FIGS. 19-25) and coccygeal artery measures (FIGS. 26-30): diameter (cm), pulsatility index (PI), resistance index (RI), blood flow (BF; mL/min; equal to MnV*vessel area*60 s), and blood flow as a proportion of BW (BF/BW).
After the treatment period, cattle were maintained together as a single group on pastures that were free from E+ fescue. Body weights were analyzed using the MIXED procedure of SAS specific for repeated measures with treatment, time, and the interaction as fixed effects and replicate as random. Arterial hemodynamics and prolactin measures were analyzed using the MIXED procedure of SAS with treatment as a fixed effect and replicate as a random effect. Ultrasonography day and order were tested as covariates and removed from the model […].

[6] = test system: pregnant heifers consuming endophyte-infected (E+) tall fescue seed and their offspring; test: Example 1: gestation length and body weights of calves born to dams fed tall fescue seed with or without melatonin; format: in vivo, cattle
Source text: Fifty-seven (n=57) pregnant heifers artificially inseminated with sex-sorted semen (X chromosome-bearing sperm) from a single Angus sire were maintained at the Savoy Unit at the University of Arkansas on Bermuda grass pastures and supplemented as needed during the first 4-5 months of gestation. After that time, pregnant heifers were housed in a barn at the Savoy Unit (FIG. 1) having a controlled feeding system (SmartFeed Pro, C-Lock, Inc.). The controlled feeding system used radio frequency identification to control feed mixtures and intake for heifers.
as §1, §2
Calf body weight was recorded at birth, and calves were tagged for identification purposes. Blood samples were collected from calves at 12±2 days of age via jugular venipuncture (four 10 mL purple top tubes and one 4 mL purple top tube). At weaning, body weight was recorded, and blood samples were collected via jugular venipuncture (four 10 mL purple top tubes and one 4 mL purple top tube). Vaccinations were administered to calves according to normal procedures at the Savoy Unit. Heifers and calves were maintained according to standard procedures at the Savoy Unit and the Physiology Farm.
Calves were weaned at 226±19 d of age. Gestation length, calf birth weight, 205-day adjusted weaning weight (205-d WW), carcass ultrasonography measures (ribeye area, REA: REA/CWT), percent intramuscular fat (IMF), rib fat thickness (UFAT), rump fat thickness (URUMP), post-weaning weights (recorded every 28 days between weaning and 84 days post-weaning), and post-weaning average daily gain (ADG) (between weaning and 84 days post-weaning) were evaluated in offspring (n=44) (FIGS. 6-13). Post-weaning calf weights were analyzed using the MIXED procedure of SAS specific for repeated measures with treatment and time as fixed effects and replicate as random. […]

[7] = calves at weaning, melatonin main-effect mean, LS mean
[8] = cows on E+ fescue with melatonin, d 68±1 of treatment
[9] = calves, melatonin main-effect mean, dams 100 μg/kg BW for 70 d, LS mean

## COc1ccc2[nH]cc(CCNC(C)=O)c2c1 [melatonin]
[1]; [7]
  IMF (percent intramuscular fat): 2.60%
  REA (ribeye area): 5.87 in.^2
  UFAT (rib fat thickness): 0.08 in.
  URUMP (rump fat thickness): 0.08 in.
[1]; fescue × melatonin interaction
  ribeye area, toxic fescue seed with melatonin compared to toxic fescue seed without melatonin: increased
[2]
  estimated daily milk volume relative to NE+/NM dams: decreased
  estimated daily milk weight relative to NE+/NM dams: decreased
[3]; Birth
  Calf weight: 74.43 lbs.
[3]; D 28
  Calf weight: 148.07 lbs.
[3]; D 56
  Calf weight: 212.07 lbs.
[3]; D 84
  Calf weight: 278.46 lbs.
[3]; D 112
  Calf weight: 347.15 lbs.
[3]; D 140
  Calf weight: 409.15 lbs.
[3]; D 168
  Calf weight: 476.77 lbs.
[3]; D 196
  Calf weight: 535.31 lbs.
[3]; D +28 Post-Weaning
  Calf weight: 641.23 lbs.
[3]; D +56 Post-Weaning
  Calf weight: 703.69 lbs.
[3]; D +84 Post-Weaning
  Calf weight: 766.62 lbs.
[3]; D +112 Post-Weaning
  Calf weight: 852.92 lbs.
[3]; Feedlot - October 29
  Calf weight: 1003.33 lbs.
[3]; Weaning
  Calf weight: 622.31 lbs.
[3]; second study, 28 days prior to weaning, loss 28 lbs., statistically adjusted means
  share of the loss in calf weight recovered by feeding melatonin: over 65%
[3]; second study, 28 days prior to weaning, multiparous cows, statistically adjusted means
  calf weight recovered by feeding melatonin: approximately 19 lbs.
[4]
  Prolactin (plasma): 86.9 ± 14.9 ng/mL
[5]; [8]
  Coccygeal artery PI (pulsatility index): 0.86±0.1
  Coccygeal artery RI (resistance index): 0.53±0.02
[5]; pregnant multiparous crossbred beef cows grazing endophyte-infected tall fescue
  effects on uterine and coccygeal artery hemodynamics: limited effects
[6]; Example 1, first-calf heifers, statistically adjusted means
  calf weight at weaning recovered by feeding melatonin: approximately 53 lbs.
[6]; Example 1, loss approximately 68 lbs., statistically adjusted means
  share of the loss in calf weight at weaning recovered by feeding melatonin: over 75%
[6]; P=0.02 as printed in text
  birth weight of offspring, dams receiving melatonin relative to those without: increased
[6]; [9]
  205-d WW (205-day adjusted weaning weight): 176.95 kg
  Birth Weight: 25.90 kg
[6]; fescue × melatonin interaction
  205-d weaning weight, toxic fescue seed with melatonin compared to toxic fescue seed without melatonin: increased
  post-weaning calf weight, toxic fescue seed with melatonin compared to toxic fescue seed without melatonin: increased
[6]; melatonin main-effect mean (E- and E+ diets pooled), 100 μg/kg BW in feed for 70 d mid-late gestation, LS mean
  Gestation Length: 272.00 days
